For assay [1], the system named is Ability of Rats to Remain on an Inclined Screen. As to the kind of experiment: Effect on ability of rats to remain on an inclined screen. It is filed as in vivo. The conditions noted are these: Rattus norvegicus, 65 min; dose necessary to cause 50% of animals to fall off; oral; 60° screen, 65 min after dosing. As to the method: The first test measures the effect of representative compounds on the ability of rats to remain on an inclined screen. Groups of at least 6 rats were treated orally with graded doses of test compounds or vehicle and placed on a wire mesh screen (inclined at an angle of 60° from a horizontal level) 65 minutes later. The number of rats falling off the screen within 30 minutes was recorded. The ED50 (dose necessary to cause 50% of the animals tested to fall off) was calculated according to the linear arc-sine transformation method of Finney, D. J. Statistical Methods in Biological Assay, 2nd Ed., Hafner, N. Y., 1964, pp. 454 ff. Compounds were dissolved or suspended in a 2% aqueous starch suspension containing 5% polyethylene glycol 400 and a drop of polysorbate 80, and administered in a constant volume of 5 ml/kg.

For assay [2], the system named is Locomotor Activity in Rats. The experiment in a line: Effects on locomotor activity in rats. It is filed as in vivo. Particulars: Rattus norvegicus, 1 h; dose causing 50% decrease in mean activity counts vs vehicle; oral, 60 min; read-out: MDD50. The procedure: Groups of 6 rats were treated orally with vehicle (5 ml/kg) or graded doses of the test compounds. Sixty minutes later, individual rats were placed in Actophotometers and locomotor activity was measured for 5 minutes after a brief (30 sec.) habituation period. Motor Activity Counts (number of crossings of the photo cells) were recorded for each rat, and mean activity counts were calculated for each treatment group. The dose causing a 50% decrease in mean activity counts compared with the vehicle group (MDD50) was calculated from a linear regression equation.

Assay [3] has as its system Brain-Specific Receptors of Rats. As to the kind of experiment: Inhibition of the binding of 3H-benzodiazepine to brain-specific receptors of rats. Also noted: species or system rat (Wistar). Particulars: 3H-diazepam 1.5 nM or 3H-flunitrazepam 1.0 nM; rat cortex P2 fraction; test concentration not given.
Assay [4] has as its system Ethanol Induced Narcosis in Rats. The experiment in a line: Effects on the duration of ethanol induced narcosis in rats. The assay is classed as in vivo. The conditions noted are these: Rattus norvegicus; lowest dose causing significant (p≤0.05) increase in duration of narcosis; oral, 60 min before 3.2 g/kg i.p. ethanol; read-out: MED. As to the method: The sedative-hypnotic properties of the novel compounds of the instant invention have been established by their effect on the duration of ethanol induced narcosis in rats as a measurement of sedation. Groups of at least 8 rats were administered graded oral doses of the test compounds or vehicle 60 minutes prior to intraperitoneal treatment with 3.2 g/kg ethanol. Rats were then observed continuously for 180 minutes for the incidence and duration of ethanol induced narcosis. […] The duration of narcosis was the total time the rat remained in a supine position. The MED [lowest dose necessary to cause a significant (p≤0.05, two-tailed Student's t test) increase in the duration of ethanol induced narcosis in rats] of representative compounds of this invention are shown in Table IV. Test compounds were dissolved or suspended in a 2% aqueous starch suspension containing 5% polyethyleneglycol 400 and a drop of Tween®80; ethanol (95%) was adjusted to final concentration (V:V) with 0.85% saline. All treatments were administered in a constant volume of 5 ml/kg.

For assay [5], the system named is Nonconditioned Passive Avoidance in Rats. As to the kind of experiment: Nonconditioned passive avoidance (conflict) test in rats. It is filed as in vivo, rat (Wistar). Also noted: key: Active: considered active if the number of shocks received by the test group is significantly higher than the control group by the Mann-Witney U test. Particulars: dose 25.0 mg/kg, oral or i.p.

For assay [6], the system named is Clonic Seizures Caused by Pentylenetetrazole in Rats. The experiment in a line: Protection against clonic seizures caused by pentylenetetrazole in rats. The assay is classed as in vivo. The conditions noted are these: Rattus norvegicus; dose 25.0 mg/kg, oral or i.p.; pentylenetetrazole 23 mg/kg i.v. at 30 or 60 min; read-out: % of Rats Protected. The method in brief:
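Rats (at least 4 per group) given single or graded oral or intraperitoneal doses in starch/PEG/Polysorbate 80 vehicle. After 30 or 60 min, pentylenetetrazole 23 mg/kg i.v. was given, a dose expected to induce clonic seizures in 99% of unprotected rats. Protection from convulsions was scored.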

What is called % Inhibition is how much of the control response was suppressed. For the compound `O=C(c1ccccc1)c1cnn2c(-c3cccnc3)ccnc12` [Phenyl[7-(3-pyridinyl)pyrazolo[1,5-a]pyrimidin-3-yl]methanone], the figures for the ED50 in assay [1] and in assay [2] were 68.5 mg/kg and 51.4 mg/kg, respectively. Also, the “% Inhibition” value in assay [3] stood at 45%. Further, in assay [4], the minimal effective dose worked out at 16 mg/kg. Moreover, the “Result (nonconditioned passive avoidance)” value (shortened to “Result”) in assay [5] is “Active”. Further, the responders at 25 mg/kg in assay [6] stood at 100%.

With `O=C(c1ccco1)c1cnn2c(-c3cccnc3)ccnc12` [2-Furanyl[7-(3-pyridinyl)pyrazolo[1,5-a]pyrimidin-3-yl]methanone], the ED50 in assay [1] is 167 mg/kg; in assay [2], 500 mg/kg. Further, the “% Inhibition” value in assay [3] is 72%. The minimal effective dose in assay [4] worked out at 32 mg/kg. The “Result” value in assay [5] is “Active”. The responders at 25 mg/kg in assay [6] worked out at 100%.

With `O=C(c1ccc(F)cc1)c1cnn2c(-c3ccncc3)ccnc12` [(4-Fluorophenyl)[7-(4-pyridinyl)pyrazolo[1,5-a]pyrimidin-3-yl]methanone], the values for the ED50 in assay [1] and in assay [2] were 98 mg/kg and 48.9 mg/kg, respectively. The minimal effective dose in assay [4] is 6 mg/kg. For the same compound, in assay [5], the “Result” value is recorded as “Active”. Besides, the responders at 25 mg/kg in assay [6] was 100%.

Source of the values: patent publication US4521422A, “Aryl and heteroaryl[7-(aryl and heteroaryl)pyrazolo[1,5-a]pyrimidin-3-yl]methanones” (American Cyanamid Company, priority 1984, dated 1985).
